From US20240262814A1, “MODULATORS OF TREX1” (Constellation Pharmaceuticals, Inc., priority 2021, published 2024)
pIC50: −log10 of the molar value.

Assays:
[1] = target: T1, human TREX1 (Homo sapiens, UniProt Q9NSU2); experiment: hTREX1 Biochemical Assay (fluorescence, dsDNA substrate degradation); conditions: full length human TREX1, 4 h pre-incubation, 18 h reaction at 25° C.
T1 construct: N-terminally His-Tev tagged full length human TREX1; made in house; host or cells: E. coli
T1 sequence (Q9NSU2 1-314): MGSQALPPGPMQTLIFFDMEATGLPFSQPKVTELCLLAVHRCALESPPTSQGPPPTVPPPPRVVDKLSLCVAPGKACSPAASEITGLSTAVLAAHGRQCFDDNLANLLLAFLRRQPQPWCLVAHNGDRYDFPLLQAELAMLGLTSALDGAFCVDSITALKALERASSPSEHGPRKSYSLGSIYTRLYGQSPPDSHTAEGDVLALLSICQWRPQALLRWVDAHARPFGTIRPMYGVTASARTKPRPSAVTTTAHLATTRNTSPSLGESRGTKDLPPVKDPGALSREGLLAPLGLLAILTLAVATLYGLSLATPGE
Description: (§1) Degradation of the dsDNA liberates free fluorophore to produce a fluorescent signal. Specifically, 7.5 μL of N-terminally His-Tev tagged full length human TREX1 (expressed in E. coli and purified in house) in reaction buffer (50 mM Tris, 150 mM NaCl, 2 mM DTT, 0.1 mg/mL BSA, 0.01% (w/v) Tween-20, 5 mM MgCl2, pH 7.4) was added to a 384-well Black ProxiPlate Plus (PerkinElmer) which already contained compound (150 nL) at varying concentrations as a 10 point dose-response in DMSO. The plate was incubated at 25° C. for 4 hours. Reactions were initiated by adding 7.5 μL of dsDNA substrate (Strand A: 5′ TEX615/GCT AGG CAG 3′; Strand B: 5′ CTG CCT AGC/IAbRQSp (Integrated DNA Technologies)) in reaction buffer. Final concentrations were 4 pM TREX1, 60 nM dsDNA substrate in reaction buffer with 1.0% DMSO (v/v). After 18 hours at 25° C., reactions were quenched by the addition of 2 p L of 500 mM EDTA. Final concentrations in the quenched reaction were 3.5 pM TREX1, 53 nM DNA and 59 mM EDTA in a volume of 17 μL. After a 5-minute incubation at room temperature, plates were read in an EnVision plate reader (PerkinElmer) measuring fluorescence at 615 nm following excitation w/ 570 nm light. IC50 values were calculated by comparing the measured fluorescence at 615 nm relative to control wells pre-quenched w/ EDTA (100% inhibition) and no inhibitor (0% inhibition) controls as using non-linear least square four parameter fits and either Genedata or GraphPad Prism (GraphPad Software, Inc.).

[2] = target: T2, mouse TREX1 (Mus musculus, UniProt Q91XB0); experiment: mTREX1 Biochemical Assay (fluorescence, dsDNA substrate degradation); conditions: full length mouse TREX1, 4 h pre-incubation, 18 h reaction at 25° C.
T2 construct: N-terminally His-Tev tagged full length mouse TREX1; made in house; host or cells: E. coli
T2 sequence (Q91XB0 1-314): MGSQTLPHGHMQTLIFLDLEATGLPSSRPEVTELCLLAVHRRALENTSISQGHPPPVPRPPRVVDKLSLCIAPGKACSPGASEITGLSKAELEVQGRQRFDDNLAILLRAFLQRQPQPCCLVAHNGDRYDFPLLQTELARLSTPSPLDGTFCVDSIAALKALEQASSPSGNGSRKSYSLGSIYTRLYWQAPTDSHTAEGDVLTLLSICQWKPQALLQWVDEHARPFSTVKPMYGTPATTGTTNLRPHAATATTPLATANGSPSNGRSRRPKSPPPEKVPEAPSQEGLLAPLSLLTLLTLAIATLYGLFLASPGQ
Description: as §1, with “Specifically, 7.5 p L of N-terminally” for “Specifically, 7.5 μL of N-terminally”, “full length mouse TREX1 (expressed” for “full length human TREX1 (expressed”, “concentrations were 6 pM TREX1,” for “concentrations were 4 pM TREX1,”, “reaction were 5.3 pM TREX1,” for “reaction were 3.5 pM TREX1,”, “of 17 p L. After a” for “of 17 μL. After a”

[3] = target: T3, human TREX2 (Homo sapiens, UniProt Q9BQ50); experiment: hTREX2 Biochemical Assay (selectivity hTREX1 vs hTREX2); conditions: biochemical selectivity for hTREX1 vs hTREX2
T3 construct: human TREX2 (residues M44-A279, expressed in E. coli); made in house; host or cells: E. coli
T3 sequence (Q9BQ50 44-279 isoform Q9BQ50-1): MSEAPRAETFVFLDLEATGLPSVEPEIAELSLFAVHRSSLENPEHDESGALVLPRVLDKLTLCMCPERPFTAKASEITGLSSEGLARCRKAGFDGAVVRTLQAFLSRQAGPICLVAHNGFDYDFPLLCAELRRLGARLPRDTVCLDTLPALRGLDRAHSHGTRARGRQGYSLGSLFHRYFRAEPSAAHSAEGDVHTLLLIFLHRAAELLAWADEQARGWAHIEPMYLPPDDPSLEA
Description: Degradation of the dsDNA liberates free fluorophore to produce a fluorescent signal. Specifically, 7.5 p L of N-terminally His-Tev tagged human TREX2 (residues M44-A279, expressed in E. coli and purified in house) in reaction buffer (50 mM Tris, 150 mM NaCl, 2 mM DTT, 0.1 mg/mL BSA, 0.01% (w/v) Tween-20, 5 mM MgCl2, pH 7.4) was added to a 384-well Black ProxiPlate Plus (PerkinElmer) which already contained compound (150 nL) at varying concentrations as a 10 point dose-response in DMSO. The plate was incubated at 25° C. for 4 hours. Reactions were initiated by adding 7.5 μL of dsDNA substrate (Strand A: 5′ TEX615/GCT AGG CAG 3′; Strand B: 5′ CTG CCT AGC/IAbRQSp (IDT)) in reaction buffer. Final concentrations were 50 pM TREX2, 60 nM dsDNA substrate in reaction buffer with 1.0% DMSO (v/v). After 18 hours at 25° C., reactions were quenched by the addition of 2 μL of 500 mM EDTA. Final concentrations in the quenched reaction mixture were 44 pM TREX2, 53 nM DNA and 59 mM EDTA in a volume of 17 μL. After a 5-minute incubation at room temperature, plates were read in an EnVision plate reader (PerkinElmer) measuring fluorescence at 615 nm following excitation w/ 570 nm light. IC50 values were calculated by comparing the measured fluorescence at 615 nm relative to control wells pre-quenched w/ stop buffer (100% inhibition) and no inhibitor (0% inhibition) controls as using non-linear least square four parameter fits and either Genedata or GraphPad Prism (GraphPad Software, Inc.).

Row | pIC50 [1] | pIC50 [2] | hTREX1 vs hTREX2 selectivity [3] | Compound
1 | 8.00 to 9.00 | 8.00 to 9.00 | A (A = <25 fold selective for hTREX1) | CC(c1nc(C(=O)Nc2cnoc2)c(O)c(=O)n1C)C(c1cc(F)cc(F)c1)c1ccccc1C#N (single isomer, unassigned) [Example 11 Isomer 4]
2 | > 9.00 | > 9.00 | C (C = >50 fold selective for hTREX1) | CC(c1nc(C(=O)Nc2cnoc2)c(O)c(=O)n1C)C(c1ccc(F)cc1F)c1ccccc1C#N (single isomer, unassigned) [Example 13 Isomer 1]
3 | < 7.00 | < 8.00 |  | CC(c1nc(C(=O)Nc2cnoc2)c(O)c(=O)n1C)C(c1ccccc1)c1cc(C(=O)N(C)C)ccc1C#N (single isomer, unassigned) [Example 17 Isomer 2]
4 | < 7.00 | < 8.00 |  | CC(c1nc(C(=O)Nc2cnoc2)c(O)c(=O)n1C)C(c1ccccc1)c1ccc(F)cc1C#N (single isomer, unassigned) [Example 7 Isomer 3]
5 | < 7.00 | < 8.00 |  | CC(c1nc(C(=O)Nc2cnoc2)c(O)c(=O)n1C)C(c1ccccc1)c1cc(F)ccc1C#N (single isomer, unassigned) [Example 6 Isomer 2]
6 | 8.00 to 9.00 | < 8.00 |  | CC(c1nc(C(=O)Nc2cnoc2)c(O)c(=O)[nH]1)C(c1ccccc1C#N)c1ccccc1C#N (single isomer, unassigned) [Example 5 Isomer 2, 2-(1,1-bis(2-cyanophenyl)propan-2-yl)-5-hydroxy-N-(isoxazol-4-yl)-6-oxo-1,6-dihydropyrimidine-4-carboxamide]
7 | < 7.00 | < 8.00 |  | Cn1c([C@@H](CF)C(c2ccccc2)c2ccccc2)nc(C(=O)Nc2cnoc2)c(O)c1=O (single isomer, unassigned) [Example 18 Isomer 2, 2-(3-fluoro-1,1-diphenylpropan-2-yl)-5-hydroxy-N-(isoxazol-4-yl)-1-methyl-6-oxo-1,6-dihydropyrimidine-4-carboxamide]
8 | < 7.00 | < 8.00 |  | CC(c1nc(C(=O)Nc2cnoc2)c(O)c(=O)n1C)C(c1ccc(F)c(F)c1)c1ccccc1C#N (single isomer, unassigned) [Example 12 Isomer 2]
9 | 8.00 to 9.00 | < 8.00 |  | C[C@H](c1nc(C(=O)Nc2cnoc2)c(O)c(=O)n1C)[C@H](c1ccccc1)c1ccc(C(=O)N(C)C)cc1C#N (single isomer, unassigned) [Example 16 Isomer 1, 2-(1-(2-cyano-4-(dimethylcarbamoyl)phenyl)-1-phenylpropan-2-yl)-5-hydroxy-N-(isoxazol-4-yl)-1-methyl-6-oxo-1,6-dihydropyrimidine-4-carboxamide]
10 | < 7.00 | < 8.00 |  | C[C@H](c1nc(C(=O)Nc2cnoc2)c(O)c(=O)n1C)[C@H](c1ccccc1)c1ccccc1C(F)(F)F (single isomer, unassigned) [Example 14 Isomer 3, 5-Hydroxy-N-(isoxazol-4-yl)-1-methyl-6-oxo-2-(1-phenyl-1-(2-(trifluoromethyl)phenyl)propan-2-yl)-1,6-dihydropyrimidine-4-carboxamide]
11 | < 7.00 | < 8.00 |  | CC(c1nc(C(=O)Nc2cnoc2)c(O)c(=O)n1C)C(c1ccccc1)c1ccc(Cl)cc1C#N (single isomer, unassigned) [Example 9 Isomer 3]
12 | 7.00 to 8.00 | < 8.00 |  | CC(c1nc(C(=O)Nc2cnoc2)c(O)c(=O)n1C)C(c1ccccc1)c1cc(C(=O)N(C)C)ccc1C#N (single isomer, unassigned) [Example 17 Isomer 4]
13 | < 7.00 | < 8.00 |  | CC(c1nc(C(=O)Nc2cnoc2)c(O)c(=O)n1C)C(c1cc(F)cc(F)c1)c1ccccc1C#N (single isomer, unassigned) [Example 11 Isomer 1]
14 | < 7.00 | < 8.00 |  | C[C@H](c1nc(C(=O)Nc2cnoc2)c(O)c(=O)n1C)[C@H](c1ccccc1)c1ccc(C(=O)N(C)C)cc1C#N (single isomer, unassigned) [Example 16 Isomer 2, 2-(1-(2-cyano-4-(dimethylcarbamoyl)phenyl)-1-phenylpropan-2-yl)-5-hydroxy-N-(isoxazol-4-yl)-1-methyl-6-oxo-1,6-dihydropyrimidine-4-carboxamide]
15 | < 7.00 | < 8.00 |  | CC(c1nc(C(=O)Nc2cnoc2)c(O)c(=O)n1C)C(c1ccccc1)c1cc(Cl)ccc1C#N (single isomer, unassigned) [Example 8 Isomer 1]
16 | < 7.00 | < 8.00 |  | CC(c1nc(C(=O)Nc2cnoc2)c(O)c(=O)n1C)C(c1ccc(F)cc1F)c1ccccc1C#N (single isomer, unassigned) [Example 13 Isomer 4]
